{
  "source": "patent US9493524B2",
  "about": "“Methods for treatment of stroke or cerebrovascular accidents using an ETB receptor agonist” (MIDWESTERN UNIVERSITY, priority 2007, dated 2016)",
  "format_in_all_cases": "in vivo, Sprague-Dawley rats",
  "key": {"[1]": {"test_system": "urethane anesthetized rat", "experiment": "Renal blood perfusion by Laser Doppler Flowmetry", "conditions": "BMS 5 and 15 mg/kg, i.v., BQ788 1 μg/kg", "experimental": "(§1) Male Sprague-Dawley rats weighing 323±4 grams (g) were anesthetized with urethane (ethyl carbamate, Sigma Aldrich, St. Louis, Mo.) dissolved in isotonic saline (0.9% NaCl, Hospira, Inc., Lake Forest, Ill.). The rats were administered a dose of 0.15 g per 100 g body weight via intraperitoneal (i.p.) injection.\nRenal Perfusion: The right kidney was dissected retroperitoneally. Renal perfusion was measured via a fiber optic probe (PF408) applied to the surface of the rat kidney. The probe was connected to a Periflux PF2b 4000 Laser Doppler Flowmetry unit (Perimed, Stockholm, Sweden).\n(§2) The rats were randomly selected for various studies. Following surgery the rats were allowed to stabilize for 30 minutes and a 15 minutes baseline recording of all parameters (blood pressure, heart rate, cerebral blood flow, and renal blood flow) was obtained prior to the administration of the pretreatment followed by IRL-1620 (Suc-[Glu 9, Ala 11,15], American Peptide Co, Inc., Sunnyville, Calif.) or ET-1 (Ala 1,3,11,15, RBI Sigma, Natick, Mass.). BQ-788, a selective endothelin B antagonist, is the sodium salt of N-cis-2,6-dimethylpiperidinocarbonyl-L-gamma-methylleucyl-D-1-methoxycarbonyl triptophanyl-DNIe (see Proc. Natl. Acad. Sci. USA, 91, pp. 4892-4896 (1994)) BMS is BMS 182, 874, which is a selective endothelin A antagonist having a structure\n(§3) Group 1: Animals (n=4) were pretreated with saline 15 minutes (min) prior to administration of IRL-1620 (5 μg/kg, i.v.).\n(§4) Group 2: Animals (n=4) were pretreated with BMS (5 mg/kg, i.v.) 15 min prior to administration of IRL-1620 (5 μg/kg, i.v.).\n(§5) Group 3: Animals (n=4) were pretreated with BMS (15 mg/kg, i.v.) 15 min prior to administration of IRL-1620 (5 μg/kg, i.v.).\n(§6) Group 4: Animals (n=4) were pretreated with BQ788 (1 μg/kg, i.v.) 15 min prior to administration of IRL-1620 (5 μg/kg, i.v.).\n(§7) Group 1: Animals (n=4) were pretreated with saline 15 min prior to administration of ET-1 (0.75 μg/kg, i.v.).\n(§8) Group 2: Animals (n=4) were pretreated with BMS (5 mg/kg, i.v.) 15 min prior to administration of ET-1 (0.75 μg/kg, i.v.).\n(§9) Group 3: Animals (n=4) were pretreated with BMS (15 mg/kg, i.v.) 15 min prior to administration of ET-1 (0.75 μg/kg, i.v.).\n(§10) Group 4: Animals (n=4) were pretreated with BQ788 (1 μg/kg, i.v.) 15 min prior to administration of ET-1 (0.75 μg/kg, i.v.).\n(§11) Blood pressure, heart rate, cerebral blood perfusion, and renal blood perfusion all were recorded for 2 hours following the final injection. Blood gases were analyzed prior to administration of any drugs, and at 60 and 120 min following administration of IRL-1620 or ET-1. At the end of each experiment, the animals were euthanized with an overdose of urethane i.v. In the figures, all data values are presented as mean±SEM. One-sample t-tests and one-way ANOVAs were used to test the differences within and between the groups. A P value of P<0.05 was considered significant."}, "[2]": {"test_system": "urethane anesthetized rat", "experiment": "Blood pressure / mean arterial pressure recording", "conditions": "BMS 5 and 15 mg/kg, i.v., BQ788 1 μg/kg", "experimental": "as §1\n(§12) Blood Pressure and Heart Rate: The femoral vein and artery were cannulated. The arterial cannula was connected to a Gould P23 ID pressure transducer for recording the blood pressure on a Grass P7D polygraph through a 7PI preamplifier. The heart rate was recorded through a 7P4B Grass tachograph, triggered from blood pressure signals. Drugs were administered via the venous cannula.\nas §2, §3, §4, §5, §6, §7, §8, §9, §10, §11"}, "[3]": {"test_system": "urethane anesthetized rat", "experiment": "Heart rate recording", "conditions": "IRL-1620 5 μg/kg, i.v.; for heart rate: mean±SEM, in bpm (unit assumed)", "experimental": "as §1, §12, §2, §3, §4, §5\nGroup 4: Animals (n=4) were pretreated with BQ788 (1 μg/kg, i.v.) 15 min prior to administration of IRL-1620 (5 μg/kg, i.v.). […]\nas §11"}, "[4]": {"test_system": "urethane anesthetized rat", "experiment": "Cerebral blood perfusion by Laser Doppler Flowmetry", "experimental": "as §1\nCerebral Perfusion: A burr hole was drilled into the rat skull about 2 millimeters (mm) to the left of midline. Cerebrovascular perfusion was measured via a fiber optic probe (PF407) applied to the surface of the rat brain. The probe was connected to a Periflux PF2b 4000 Laser Doppler Flowmetry unit (Perimed, Stockholm, Sweden).\nas §2, §3, §4, §5, §6, §7, §8, §9, §10, §11"}, "[5]": {"test_system": "urethane anesthetized rat", "experiment": "Arterial blood gas analysis", "conditions": "IRL-1620 5 μg/kg, i.v., ET-1 0.75 μg/kg", "experimental": "as §1\nBlood Gas Analysis: Arterial blood gases were monitored to determine the effects on pH, pCO2, and pO2. Blood was drawn from the arteriole cannula and analyzed using a GEM Premier 3000 unit (Instrument Laboratory, Lexington, Mass.).\nas §11"}, "[6]": {"conditions": "time 0 min (prior to any drugs)"}},
  "note": "Numbered stars: 1 amine (or outer) side, 2 acyl side, 3 side chain; on linkers, the order of the positions; unused ones are H or OH. Peptide text beside a SMILES is read from it. Suc = O=C(CCC(=O)[*:2])[*:1]",
  "data": [
    {"compound": "Cc1noc(NS(=O)(=O)c2cccc3c(N(C)C)cccc23)c1C", "note": "[BMS]", "values": [
      {"measurement": "effect of pretreatment on the effect of ET-1 on renal blood flow", "setting": "[1]; ET-1 0.75 μg/kg, FIG. 10", "value": "No pretreatment significantly altered"},
      {"measurement": "effect of pretreatment on the effect of IRL-1620 on renal blood flow", "setting": "[1]; IRL-1620 5 μg/kg, FIG. 9", "value": "sustained decrease in renal blood flow up to 120 minutes"},
      {"measurement": "effect of pretreatment on the effect of ET-1 on mean arterial pressure", "setting": "[2]; ET-1 0.75 μg/kg, FIG. 13", "value": "failed to alter"},
      {"measurement": "effect of pretreatment on the effect of IRL-1620 on mean arterial pressure", "setting": "[2]; IRL-1620 5 μg/kg, FIG. 12", "value": "transient hypotension similar to that observed in animals pretreated with saline"},
      {"measurement": "heart rate", "setting": "[3]; 5 mg/kg BMS pretreatment, time 0 min", "value": "339 ± 6"},
      {"measurement": "heart rate", "setting": "[3]; 5 mg/kg BMS pretreatment, time 1 min", "value": "365 ± 4"},
      {"measurement": "heart rate", "setting": "[3]; 5 mg/kg BMS pretreatment, time 5 min", "value": "357 ± 13"},
      {"measurement": "heart rate", "setting": "[3]; 5 mg/kg BMS pretreatment, time 10 min", "value": "345 ± 14"},
      {"measurement": "heart rate", "setting": "[3]; 5 mg/kg BMS pretreatment, time 15 min", "value": "345 ± 14"},
      {"measurement": "heart rate", "setting": "[3]; 5 mg/kg BMS pretreatment, time 30 min", "value": "356 ± 12"},
      {"measurement": "heart rate", "setting": "[3]; 5 mg/kg BMS pretreatment, time 45 min", "value": "367 ± 14"},
      {"measurement": "heart rate", "setting": "[3]; 5 mg/kg BMS pretreatment, time 60 min", "value": "370 ± 14"},
      {"measurement": "heart rate", "setting": "[3]; 5 mg/kg BMS pretreatment, time 90 min", "value": "350 ± 9"},
      {"measurement": "heart rate", "setting": "[3]; 5 mg/kg BMS pretreatment, time 120 min", "value": "327 ± 12"},
      {"measurement": "heart rate", "setting": "[3]; 15 mg/kg BMS pretreatment, time 0 min", "value": "405 ± 11"},
      {"measurement": "heart rate", "setting": "[3]; 15 mg/kg BMS pretreatment, time 1 min", "value": "425 ± 11"},
      {"measurement": "heart rate", "setting": "[3]; 15 mg/kg BMS pretreatment, time 5 min", "value": "382 ± 13"},
      {"measurement": "heart rate", "setting": "[3]; 15 mg/kg BMS pretreatment, time 10 min", "value": "380 ± 11"},
      {"measurement": "heart rate", "setting": "[3]; 15 mg/kg BMS pretreatment, time 15 min", "value": "384 ± 11"},
      {"measurement": "heart rate", "setting": "[3]; 15 mg/kg BMS pretreatment, time 30 min", "value": "387 ± 17"},
      {"measurement": "heart rate", "setting": "[3]; 15 mg/kg BMS pretreatment, time 45 min", "value": "387 ± 21"},
      {"measurement": "heart rate", "setting": "[3]; 15 mg/kg BMS pretreatment, time 60 min", "value": "395 ± 19"},
      {"measurement": "heart rate", "setting": "[3]; 15 mg/kg BMS pretreatment, time 90 min", "value": "393 ± 21"},
      {"measurement": "heart rate", "setting": "[3]; 15 mg/kg BMS pretreatment, time 120 min", "value": "386 ± 18"},
      {"measurement": "effect of pretreatment on the effect of IRL-1620 on heart rate (Table 1)", "setting": "[3]; BMS 5 and 15 mg/kg, BQ788", "value": "increase"},
      {"measurement": "effect of pretreatment on the effect of ET-1 on cerebral blood flow", "setting": "[4]; BMS 5 and 15 mg/kg, i.v., BQ788 1 μg/kg, ET-1 0.75 μg/kg, FIG. 7", "value": "no significant change"},
      {"measurement": "transient increase in cerebral blood flow", "setting": "[4]; high dose of BMS (15 mg/kg, i.v.) pretreatment, 1 minute after administration of IRL-1620 5 μg/kg, FIG. 6", "value": 37.99, "unit": "%"}
    ]},
    {"compound": "CC[C@H](C)[C@H](NC(=O)[C@H](CC(=O)O)NC(=O)[C@H](CC(C)C)NC(=O)[C@H](Cc1c[nH]cn1)NC(=O)[C@H](C)NC(=O)[C@H](Cc1ccccc1)NC(=O)[C@H](Cc1ccc(O)cc1)NC(=O)[C@@H](NC(=O)[C@H](C)NC(=O)[C@H](CCC(=O)O)NC(=O)[C@H](CCC(=O)O)NC(=O)[C@H](CC(=O)O)NC(=O)CCC(=O)O)C(C)C)C(=O)N[C@H](C(=O)N[C@@H](Cc1c[nH]c2ccccc12)C(=O)O)[C@@H](C)CC", "note": "[IRL-1620, N-Succinyl-[Glu^9, Ala^11,15]-Endothelin 1 fragment 8-21] (Suc-DEEAVYFAHLDIIW-OH)", "values": [
      {"measurement": "effect on arterial blood gases (text to Table 2)", "setting": "[5]", "value": "Neither IRL-1620 nor ET-1 significantly affected blood gases"},
      {"measurement": "arterial blood pCO2", "setting": "[5]; [6]", "value": "42 ± 2"},
      {"measurement": "arterial blood pH", "setting": "[5]; [6]", "value": "7.32 ± 0.01"},
      {"measurement": "arterial blood pO2", "setting": "[5]; [6]", "value": "103 ± 3"},
      {"measurement": "arterial blood pCO2", "setting": "[5]; time 60 min", "value": "46 ± 6"},
      {"measurement": "arterial blood pH", "setting": "[5]; time 60 min", "value": "7.27 ± 0.01"},
      {"measurement": "arterial blood pO2", "setting": "[5]; time 60 min", "value": "99 ± 9"},
      {"measurement": "arterial blood pCO2", "setting": "[5]; time 120 min", "value": "32 ± 3"},
      {"measurement": "arterial blood pH", "setting": "[5]; time 120 min", "value": "7.29 ± 0.01"},
      {"measurement": "arterial blood pO2", "setting": "[5]; time 120 min", "value": "113 ± 6"}
    ]}
  ]
}
